The values below come from ChEMBL document CHEMBL1126511, “Protein damage caused by a synthetic enediyne core” (Bioorg Med Chem Lett, 1993).

This experiment deals with HCT-116. Kind of experiment: In vitro cytotoxicity against human colon carcinoma cell line HCT116. The experiment is classed as functional, cell-based.

One may read the IC50 as the concentration needed to halve the response being measured. High values mean weaker potency in that assay, low ones greater potency in that assay. The compound `O=C1C2=CCC[C@@]1(O)C#C/C=C\C#C[C@@H]2O` returned an IC50 of 100 nM.
